From patent publication US20190365784A1, “USE OF BRASSINOSTEROID ANALOGS FOR THE TREATMENT OF DERMAL DISORDERS BY SELECTIVELY MODULATING LIVER X RECEPTORS (LXR) AND DERMAL DISEASE TREATMENT BY BRASSINOSTEROID ANALOGS ACTING AS SELECTIVE LIVER X RECEPTOR (LXR) MODULATORS” (CONSEJO NACIONAL DE INVESTIGACIONES CIENTÍFICAS Y TÉCNICAS …, priority 2015, published 2019)
Marks after values point to notes of the source that are not given here.

How the values were obtained:
[1] = test system: imiquimod-induced skin lesions; test: Imiquimod-induced psoriasis model in mice: clinical signs and dorsal skin histopathology; assay type: in vivo; design: key to Hyperkeratosis, protective effect / Epidermal serocellular crust, protective effect / Acanthosis, protective effect / Dermal inflammatory infiltrates, protective effect: the (+) sign represents the presence of a protective effect; a (−) sign represents the absence of protective effect; conditions: for Acanthosis (0-4), group mean score of dorsal skin / Basliar papillae (0-4), group mean score of dorsal skin / Dermal inflammatory infiltrates (0-4), group mean score of dorsal skin / Dilated tortuous capillaries (0-4), group mean score of dorsal skin / Epidermal micro-abscesses (0-4), group mean score of dorsal skin / Epidermal serocellular rust (0-4), group mean score of dorsal skin / Hyperkeratosis (0-4), group mean score of dorsal skin / Mean Global Score, dorsal skin / Parakeratosis (0-4), group mean score of dorsal skin: psoriatic mice; for Acanthosis (0-4), group mean score of dorsal skin / Basliar papillae (0-4), group mean score of dorsal skin / Dermal inflammatory infiltrates (0-4), group mean score of dorsal skin / Dilated tortuous capillaries (0-4), group mean score of dorsal skin / Epidermal micro-abscesses (0-4), group mean score of dorsal skin / Epidermal serocellular rust (0-4), group mean score of dorsal skin / Hyperkeratosis (0-4), group mean score of dorsal skin / Mean Global Score, dorsal skin / Parakeratosis (0-4), group mean score of dorsal skin / severity of microscopic alterations of back skin (histopathology): QD 9 days
Excerpt: To test whether Compound I might ameliorate the signs of psoriasis, we topically administered Compound I to imiquimod-induced skin lesions in mice. The imiquimod mouse model of psoriasis-like skin inflammation is characterized by lesions that show augmented epidermal cell proliferation, abnormal keratinocyte differentiation, neutrophil accumulation in epidermal microabcesses, and neoangiogenesis.
For this study, thirty two 8-week old female Balbc/J mice were housed […] in positively ventilated polysulfonate cages with HEPA filtered air at a density of 4 mice per cage. The animal room was lighted entirely with artificial fluorescent lighting, with a controlled 12 h light/dark cycle (6 am to 6 pm light). The normal temperature and relative humidity ranges in the animal rooms were 22±4° C. and 50±15%, respectively. The animal rooms were set to have a minimum of 15 air exchanges per hour. Filtered tap water, acidified to a pH of 2.5 to 3.0, and standard rodent chow were provided ad libitum. After 1 week of acclimation mice were randomized into 4 groups (n=8/each) as shown below (Table 1).
1. IMQ induction: On day 0 all grouped mice received a topical dose of 62.5 mg of IMQ cream (5%) on the shaved back for 6 consecutive days. (Day 0 to Day 5)
3. Mice were scored for clinical parameters of disease based on degree of erythema, scaling and thickening independently on a scale of 0-4. 0=none; 1=slight; 2=moderate; 3=moderate to severe: 4=severe. These observations were recorded on day 0, 2, 4, 6, and 8. On the same days, back skin thickness was measured with calipers.
5. Mice were sacrificed on day 10 by CO2 asphyxiation.
6. A part of the back skin was harvested and fixed for histology. Slides were processed, stained with H&E for histology assessment.
Dorsal skin sections were evaluated histopathologically for evidence of key features of psoriasis, such as parakeratosis, hyperkeratosis (thickening of the stratum corneum), acanthosis (diffuse thickening of the stratum spinosum of the skin), epidermal serocellular crusts, epidermal microabscesses, basilar papillae, dermal inflammatory infiltrates and dilated tortuous capillaries (Table 2. Histopathological scoring system and definition used in the Imiquimod psoriasis model).

[2] = Plasma total cholesterol, HDL-cholesterol and triglyceride in C57BI mice after 5 days i.p. treatment; assay type: in vivo; conditions: male C57BI mice; Compound I 10 mg/kg i.p. daily for 5 days
Description: Administration of synthetic LXR agonists such as T0901317 induces a marked increment of liver lipogenesis that leads to hepatic steatosis and plasma hypertriglyceridemia.
Male C57BI mice received daily for 5 days intraperitoneal injections containing either 10 mg Compound I/kg, or 5 mg T0901317/kg, or vehicle [90% (v/v) DMSO in apyrogenic sterile water]. On the sixth day of the assay, the animals were fasted for 4 h before decapitation. Blood plasma was obtained for the determination of total cholesterol, HDL-cholesterol and triglyceride contents. The livers were resected, and their weights and colors used as gross markers of increased liver triglyceride contents.

[3] = 0.1% (w/v) Compound I vs 0.1% (w/v) Clobetasol as printed
[4] = topical 0.10%, summary of Table 3

With CC[C@@H](C(C)C)[C@H](O)[C@@H](O)[C@@H](C)[C@H]1CC[C@H]2[C@@H]3CCC4=CC(=O)CC[C@]4(C)[C@H]3CC[C@]12C [Compound I, (22S,23S)-22,23-dihydroxystigmast-4-en-3-one] the “epidermal sero-cellular crust reduced relative to Clobetasol-treated mice” value [1, 3] was 50%, the “hyperkeratosis reduced relative to Clobetasol-treated mice” value [1, 3] was 50% and the “global response score of dorsal skin, lower vs. vehicle-treated animals” value ([1]; Compound I 0.1% topical, 9 days) was about 26%. The “back skin thickening (calipers)” value ([1]; after 9 days topical, Compound I 0.05% and 0.1% (w/v), clobetasol 0.05% cream) was “None of the assayed Compound I's doses prevented back skin thickening”, the “erythema reduction relative to vehicle-treated mice” value ([1]; day 8, both Compound I doses 0.05% and 0.1% (w/v), topical) was 50% and the “skin erythema (clinical score 0-4, in words)” value ([1]; day 8, topical QD 9 days, both Compound I doses 0.05% and 0.1% (w/v), clobetasol 0.05% cream) was “slight”. The “scaling (clinical score 0-4, in words)” value ([1]; day 8, topical QD 9 days, both Compound I doses, clobetasol 0.05% cream) was “no improvement”, the “Acanthosis (0-4), group mean score of dorsal skin” value ([1]; topical 0.05%) was 2.4 and the “Basliar papillae (0-4), group mean score of dorsal skin” value ([1]; topical 0.05%) was 0.0. The “Dermal inflammatory infiltrates (0-4), group mean score of dorsal skin” value ([1]; topical 0.05%) was 2.0, the “Dilated tortuous capillaries (0-4), group mean score of dorsal skin” value ([1]; topical 0.05%) was 0.0 and the “Epidermal micro-abscesses (0-4), group mean score of dorsal skin” value ([1]; topical 0.05%) was 0.0. For the same compound, the “Epidermal serocellular rust (0-4), group mean score of dorsal skin” value ([1]; topical 0.05%) was 0.4, the “Hyperkeratosis (0-4), group mean score of dorsal skin” value ([1]; topical 0.05%) was 1.3* and the “Mean Global Score, dorsal skin” value ([1]; topical 0.05%) was 6.4. The “Parakeratosis (0-4), group mean score of dorsal skin” value ([1]; topical 0.05%) was 0.4, the “Acanthosis (0-4), group mean score of dorsal skin” value ([1]; topical 0.10%) was 2.1 and the “Basliar papillae (0-4), group mean score of dorsal skin” value ([1]; topical 0.10%) was 0.0. The “Dermal inflammatory infiltrates (0-4), group mean score of dorsal skin” value ([1]; topical 0.10%) was 1.5, the “Dilated tortuous capillaries (0-4), group mean score of dorsal skin” value ([1]; topical 0.10%) was 0.0 and the “Epidermal micro-abscesses (0-4), group mean score of dorsal skin” value ([1]; topical 0.10%) was 0.0. For the same compound, the “Epidermal serocellular rust (0-4), group mean score of dorsal skin” value ([1]; topical 0.10%) was 0.3†, the “Hyperkeratosis (0-4), group mean score of dorsal skin” value ([1]; topical 0.10%) was 0.9** and the “Mean Global Score, dorsal skin” value ([1]; topical 0.10%) was 4.9. The “Parakeratosis (0-4), group mean score of dorsal skin” value ([1]; topical 0.10%) was 0.0, the “severity of microscopic alterations of back skin (histopathology)” value ([1]; topical 0.05%) was “slightly lower severity” and the “severity of microscopic alterations of back skin (histopathology)” value ([1]; topical 0.10% (w/v)) was “lower than in samples from vehicle-treated psoriatic controls and 0.05% (w/v) Compound I-treated mice”. The “Acanthosis, protective effect” value [1, 4] was “−”, the “Dermal inflammatory infiltrates, protective effect” value [1, 4] was “−” and the “Epidermal serocellular crust, protective effect” value [1, 4] was “+”. For the same compound, the “Hyperkeratosis, protective effect” value [1, 4] was “+” and the hypertriglyceridemia [2] was “no signs”.
